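Each compound was tested at five concentrations against cells in 96-well plates for 48 hours. Here, GI50 denotes the concentration required for 50% inhibition of growth.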 Calls of active or inactive are those of the source. Cut-off read from the data, not from the text of the source: active = GI50 up to about 1.1 µM and inactive = higher.
Columns and labels:
Assay in all cases: NCI-60 cell line screen, 48 h
[1] = tested on: DLD-1
[2] = tested on: DMS-273
[3] = tested on: HOP-18
[4] = tested on: KM-20L2
[5] = tested on: LXFL 529
[6] = tested on: M19-MEL
[7] = tested on: RXF 631
[8] = tested on: XF498
[9] = tested on: BT-549

Measured: GI50

N/C(=N\O)N/N=C/c1cccc(F)c1
inactive: [1] 64 µM | [2] 48.9 µM | [3] 25.1 µM | [4] 32.2 µM | [5] 27 µM | [6] 48.3 µM | [7] 26.1 µM | [8] 43.7 µM

COc1ccc(S(=O)(=O)Nc2ccccc2C(=O)O)cc1
inactive: [1] > 100 µM | [2] > 100 µM | [3] > 100 µM | [4] > 100 µM | [5] > 100 µM | [6] > 100 µM | [7] > 100 µM | [8] > 100 µM

CCCCCCCCCCCCCCCCc1c(O)nc(NN)nc1C(=O)OC
inactive: [1] > 50 µM | [2] > 50 µM | [3] > 50 µM | [4] > 50 µM | [5] > 50 µM | [6] > 50 µM | [7] > 50 µM | [8] > 50 µM

O=C1C2C3C=C4c5ccccc5N(c5ccccc5)C4(C2C(=O)N1c1ccccc1)C1C(=O)N(c2ccccc2)C(=O)C31 (stereo not given)
inactive: [1] > 100 µM | [3] > 100 µM | [4] > 100 µM | [5] > 100 µM | [6] 5.13 µM | [7] > 100 µM | [8] 37 µM

COC1(OC)CC2OC1C1N=NN(C(=O)OC(C)(C)C)C21 (stereo not given)
inactive: [1] 34.8 µM | [2] > 100 µM | [3] > 100 µM | [4] > 100 µM | [5] > 100 µM | [6] > 100 µM | [7] > 100 µM | [8] > 100 µM

Cc1ccc(SSCCCCS(=O)O)cc1
inactive: [1] 25.4 µM | [2] 19.6 µM | [3] 41.9 µM | [4] 20.4 µM | [5] 12.9 µM | [6] 12.2 µM | [7] 11.7 µM | [8] 14.8 µM

Cc1cn(C2C=CC(=O)C(C)O2)c(=O)[nH]c1=O (stereo not given)
inactive: [1] 14.1 µM | [2] 18.1 µM | [3] 15 µM | [4] 16.3 µM | [5] 14.8 µM | [6] 15.8 µM | [7] 15.2 µM | [8] 13.5 µM

NNC(=O)/C(=C/c1cccc([N+](=O)[O-])c1)NC(=O)c1ccccc1
inactive: [1] > 100 µM | [2] > 100 µM | [3] > 100 µM | [5] > 100 µM | [6] > 100 µM | [7] > 100 µM | [8] > 100 µM

CCOC(=O)C1=C(C)N(NC(=O)Nc2ccccc2)C2(N)N(NC(=O)Nc3ccccc3)C(C)=C(C(=O)OCC)C12C(=O)OCC (stereo not given)
inactive: [1] 53.8 µM | [2] 41.9 µM | [3] 26.7 µM | [4] 75.9 µM | [5] 57 µM | [6] 43.3 µM | [7] 51.9 µM | [8] 12 µM

O=C(O)C[C@H]1CCCCC12CCOC2=O (stereo not given in full)
inactive: [1] > 100 µM | [2] > 100 µM | [3] > 100 µM | [4] > 100 µM | [5] > 100 µM | [6] > 100 µM | [7] > 100 µM | [8] > 100 µM

CCCCCCCC(=O)O[C@H]1[C@H]2[C@@H](CC1(C)C)C(=O)[C@]13O[C@H]1C(=O)[C@]1(CO1)[C@]23C
inactive: [9] 15.5 µM | [1] 1.89 µM | [2] 5.96 µM | [3] 5.33 µM | [4] 4.89 µM | [5] 1.58 µM | [6] 3.41 µM | [7] 17.8 µM | [8] 3.26 µM

Cc1cc2c(cc1C)[n+]([O-])c(C(=O)C/C(=N/OCCCc1ccccc1)C(=O)Nc1cc(Cl)ccc1Cl)c(C)[n+]2[O-]
inactive: [1] > 100 µM | [2] > 100 µM | [3] > 100 µM | [4] > 100 µM | [5] > 100 µM | [6] > 100 µM | [7] > 100 µM | [8] > 100 µM

Source: ChEMBL document CHEMBL1201862, “PubChem BioAssay data set” (2004)
